Measured values: ChEMBL document CHEMBL1147406, “Polar substitutions in the benzenesulfonamide ring of celecoxib afford a potent 1,5-diarylpyrazole class of COX-2 inhibitors” (Bioorg Med Chem Lett, 2004)

Assays:
[1] = target: T1, Prostaglandin G/H synthase 2 (Homo sapiens, UniProt P35354); assay: Inhibitory activity against human Prostaglandin G/H synthase 2 expressed in sf-9 cells infected with baculovirus; type: cell-based, Sf9
T1 sequence (P35354 whole entry): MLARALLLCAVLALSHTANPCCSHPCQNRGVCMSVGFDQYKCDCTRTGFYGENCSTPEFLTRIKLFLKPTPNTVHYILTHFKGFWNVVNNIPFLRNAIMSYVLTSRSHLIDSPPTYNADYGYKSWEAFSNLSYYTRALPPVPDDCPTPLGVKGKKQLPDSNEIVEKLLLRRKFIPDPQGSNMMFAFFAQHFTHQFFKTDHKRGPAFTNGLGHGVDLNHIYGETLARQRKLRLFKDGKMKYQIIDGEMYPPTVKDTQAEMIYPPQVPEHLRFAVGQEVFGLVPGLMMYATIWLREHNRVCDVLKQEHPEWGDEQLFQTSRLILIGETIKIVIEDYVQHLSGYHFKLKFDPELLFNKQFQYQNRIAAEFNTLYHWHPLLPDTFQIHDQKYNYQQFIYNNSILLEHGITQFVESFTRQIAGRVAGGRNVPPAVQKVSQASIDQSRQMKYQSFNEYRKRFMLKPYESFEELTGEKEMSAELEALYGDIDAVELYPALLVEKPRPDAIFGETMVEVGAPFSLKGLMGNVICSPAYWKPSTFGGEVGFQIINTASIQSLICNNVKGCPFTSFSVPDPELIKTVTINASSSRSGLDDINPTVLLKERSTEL

[2] = target: T2, Prostaglandin G/H synthase 1 (Ovis aries, UniProt P05979)
T2 sequence (P05979 whole entry): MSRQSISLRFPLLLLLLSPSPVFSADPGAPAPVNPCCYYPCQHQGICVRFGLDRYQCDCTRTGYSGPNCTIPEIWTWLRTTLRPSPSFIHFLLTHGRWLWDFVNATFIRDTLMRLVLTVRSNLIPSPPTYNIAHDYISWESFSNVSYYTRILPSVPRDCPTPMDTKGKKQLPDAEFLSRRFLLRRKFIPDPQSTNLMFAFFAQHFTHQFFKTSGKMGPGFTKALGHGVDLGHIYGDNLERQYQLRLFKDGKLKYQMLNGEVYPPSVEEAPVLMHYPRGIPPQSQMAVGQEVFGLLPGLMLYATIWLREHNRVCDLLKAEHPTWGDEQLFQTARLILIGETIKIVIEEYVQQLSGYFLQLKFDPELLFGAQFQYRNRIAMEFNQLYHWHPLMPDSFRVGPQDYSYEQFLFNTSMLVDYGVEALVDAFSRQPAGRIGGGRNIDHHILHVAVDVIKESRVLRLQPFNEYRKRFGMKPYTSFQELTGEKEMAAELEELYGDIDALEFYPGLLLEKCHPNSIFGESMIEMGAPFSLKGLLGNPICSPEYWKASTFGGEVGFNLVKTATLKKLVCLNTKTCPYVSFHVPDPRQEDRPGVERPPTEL

[3] = target: T3, Prostaglandin G/H synthase 2 (Homo sapiens) (UniProt P35354); assay: Inhibitory activity of compound against human Prostaglandin G/H synthase 2 expressed in sf-9 cells infected with baculovirus at 100 uM concentration; settings: Sf9
T3 sequence (whole entry): T1 sequence (P35354 whole entry)

[4] = target: T3, Prostaglandin G/H synthase 2 (Homo sapiens); assay: Inhibitory activity of compound against human cyclooxygenase-2 expressed in sf-9 cells infected with baculovirus at 10 uM concentration; settings: Sf9
[5] = target: T4, Prostaglandin G/H synthase 1 (Ovis aries) (UniProt P05979); assay: Inhibitory activity against prostaglandin G/H synthase 1 from ram seminal vesicles at 100 uM concentration
T4 sequence (whole entry): T2 sequence (P05979 whole entry)

[6] = target: T4, Prostaglandin G/H synthase 1 (Ovis aries); assay: Inhibitory activity of compound against prostaglandin G/H synthase 1 from ram seminal vesicles at 10 uM concentration
[7] = target: T4, Prostaglandin G/H synthase 1 (Ovis aries); assay: Inhibitory activity of compound against Prostaglandin G/H synthase 1 from ram seminal vesicles at 10 uM concentration

Row | Compound | IC50 [1] | IC50 [2] | other results
1 | COc1ccc(-c2cc(C(F)(F)F)nn2-c2ccc(S(C)(=O)=O)c(C=O)c2)cc1 | – | – | inhibition [3]: 100%; inhibition [4]: 44%; inhibition [5]: 92%
2 | NS(=O)(=O)c1ccc(-n2nc(C(F)(F)F)cc2-c2ccccc2)cc1CO | 3.45 µM | 1090 µM | –
3 | CSc1ccc(-c2cc(C(F)(F)F)nn2-c2ccc(S(N)(=O)=O)c(C(C)O)c2)cc1 (stereo not given) | – | – | inhibition [3]: 50%; inhibition [5]: 6%
4 | NS(=O)(=O)c1ccc(-n2nc(C(F)(F)F)cc2-c2ccccc2F)cc1CO | 3.3 µM | 500 µM | –
5 | CC(=O)NCc1cc(-n2nc(C(F)(F)F)cc2-c2ccc(Cl)cc2)ccc1S(N)(=O)=O | 5 µM | 100 µM | –
6 | NS(=O)(=O)c1ccc(-n2nc(C(F)(F)F)cc2-c2cccc(F)c2)cc1CO | 7.05 µM | 1000 µM | –
7 | COc1ccc(-c2cc(C(F)(F)F)nn2-c2ccc3c(c2)COS3(=O)=O)cc1 | – | – | inhibition [3]: 36%; inhibition [5]: 92%
8 | CC(C)Cc1ccc(-c2cc(C(F)(F)F)nn2-c2ccc(S(N)(=O)=O)c(CO)c2)cc1 | – | – | inhibition [3]: 14%; inhibition [5]: 4%
9 | CS(=O)(=O)c1ccc(-c2cc(C(F)(F)F)nn2-c2ccc(S(N)(=O)=O)c(CO)c2)cc1 | – | – | inhibition [3]: 29%; inhibition [5]: 68%
10 | COc1ccccc1-c1cc(C(F)(F)F)nn1-c1ccc(S(N)(=O)=O)c(CO)c1 | 28.6 µM | 1150 µM | –
11 | NS(=O)(=O)c1ccc(-n2nc(C(F)(F)F)cc2-c2ccc(F)cc2)cc1CO | 1.99 µM | 500 µM | –
12 | CC(=O)NCc1cc(-n2nc(C(F)(F)F)cc2-c2ccc(C)cc2)ccc1S(N)(=O)=O | 6.85 µM | 4.62 µM | –
13 | Cc1cccc(-c2cc(C(F)(F)F)nn2-c2ccc(S(N)(=O)=O)c(CO)c2)c1 | 0.728 µM | 327 µM | –
14 | CSc1ccc(-c2cc(C(F)(F)F)nn2-c2ccc(S(C)(=O)=O)c(CO)c2)cc1 | – | – | inhibition [3]: 45%; inhibition [5]: 0%
15 | COc1ccc(-c2cc(C(F)(F)F)nn2-c2ccc(S(C)(=O)=O)c(CO)c2)cc1 | 3.2 µM | 300 µM | –
16 | COc1ccc(-c2cc(C(F)(F)F)nn2-c2ccc(S(N)(=O)=O)c(CNC(C)=O)c2)cc1 | 2.8 µM | 100 µM | –
17 | COc1ccc(-c2cc(C(F)(F)F)nn2-c2ccc3c(c2)CNS3(=O)=O)cc1 | – | – | inhibition [3]: 12%; inhibition [5]: 85%
18 | COc1ccc(-c2cc(C(F)(F)F)nn2-c2ccc3c(c2)CCS3(=O)=O)cc1 | – | – | inhibition [3]: 36%; inhibition [5]: 86%
19 | COc1ccc(-c2cc(C(F)(F)F)nn2-c2ccc(S(N)(=O)=O)c(CO)c2)cc1 | 0.365 µM | 63 µM | –
20 | Cc1ccc(-c2cc(C(F)(F)F)nn2-c2ccc3c(c2)CCS3(=O)=O)cc1 | – | – | inhibition [3]: 10%; inhibition [5]: 90%
21 | NS(=O)(=O)c1ccc(-n2nc(C(F)(F)F)cc2-c2ccc(O)cc2)cc1CO | – | – | inhibition [4]: 19%; inhibition [6]: 0%
22 | CCOC(=O)OCc1cc(-n2nc(C(F)(F)F)cc2-c2ccc(C)cc2)ccc1S(C)(=O)=O | – | – | inhibition [4]: 0%; inhibition [7]: 9%
23 | CCOc1ccc(-c2cc(C(F)(F)F)nn2-c2ccc(S(N)(=O)=O)c(CO)c2)cc1 | 0.901 µM | 135 µM | –

More lines, main results first:

Row | IC50 [1] | IC50 [2] | Compound | other results
24 | 0.592 µM | 230 µM | NS(=O)(=O)c1ccc(-n2nc(C(F)(F)F)cc2-c2ccc(Br)cc2)cc1CO | –
25 | 0.712 µM | 336 µM | NS(=O)(=O)c1ccc(-n2nc(C(F)(F)F)cc2-c2ccc(Cl)cc2)cc1CO | –
26 | 51.2 µM | 300 µM | CCSc1ccc(-c2cc(C(F)(F)F)nn2-c2ccc(S(N)(=O)=O)c(CO)c2)cc1 | –
27 | 0.76 µM | 278 µM | Cc1ccc(-c2cc(C(F)(F)F)nn2-c2ccc(S(N)(=O)=O)c(CO)c2)cc1 | –
28 | 1.95 µM | 465 µM | NS(=O)(=O)c1ccc(-n2nc(C(F)(F)F)cc2-c2cccc(Cl)c2)cc1CO | –
29 | 0.57 µM | 34.6 µM | CCC(=O)OCc1cc(-n2nc(C(F)(F)F)cc2-c2ccc(C)cc2)ccc1S(N)(=O)=O | –
30 | 0.235 µM | 59.7 µM | CSc1ccc(-c2cc(C(F)(F)F)nn2-c2ccc(S(N)(=O)=O)c(CO)c2)cc1 | –
31 | 1.38 µM | 500 µM | CCc1ccc(-c2cc(C(F)(F)F)nn2-c2ccc(S(N)(=O)=O)c(CO)c2)cc1 | –
32 | 6.3 µM | 512 µM | NS(=O)(=O)c1ccc(-n2nc(C(F)(F)F)cc2-c2ccccc2Cl)cc1CO | –
